# What was measured:
# Experiment in all cases: AUC of viability dose-response curve (% viability x log10 dose units); higher = less sensitive
# Settings in all cases: 48 h
# NOMO1 = tested on: NOMO1
# Method in brief: (§1)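 Library compounds in DMSO were applied for 48 h at 37°C at 11 threefold doses (47 μM to 0.79 nM) to medium-adapted leukemia cells in 1536-well plates holding 500 or 1000 cells/well. Luminescence from CellTiter-Glo One was normalised plate by plate against DMSO and cell-free wells. Area under the curve came from trapezoidal integration of a log-logistic fit, after scaling curves that rose above full viability and discarding those that failed quality control. The fit had four parameters and used log10 doses.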
# SEM cells = tested on: SEM cells
# Method in brief: as §1
# P12-Ichikawa = tested on: P12-Ichikawa
# Method in brief: as §1
# [1] = RPMI 5 mM glucose + 10% dialyzed FBS
SMILES,AUC of viability dose-response curve (NOMO1; HPLM + 10% dialyzed FBS),AUC of viability dose-response curve (NOMO1; RPMI 5 mM glucose + 10% FBS),AUC of viability dose-response curve (NOMO1; [1]),AUC of viability dose-response curve (SEM cells; HPLM + 10% dialyzed FBS),AUC of viability dose-response curve (SEM cells; RPMI 5 mM glucose + 10% FBS),AUC of viability dose-response curve (SEM cells; [1]),AUC of viability dose-response curve (P12-Ichikawa; HPLM + 10% dialyzed FBS),AUC of viability dose-response curve (P12-Ichikawa; RPMI 5 mM glucose + 10% FBS),AUC of viability dose-response curve (P12-Ichikawa; [1])
C#Cc1cccc(Nc2ncnc3cc(OCCOC)c(OCCOC)cc23)c1,433,440,400,425,453,390,445,421,418
CC(=O)O.Cc1c(-c2ccc(O)cc2)n(Cc2ccc(OCCN3CCCCCC3)cc2)c2ccc(O)cc12,472,446,469,449,423,418,472,459,446
CC\1=C/C=C\C=[N]1[Pt](N)(Cl)Cl,471,465,463,427,465,421,472,467,464
C[C@]\12CC[C@H](O)CC1=C/CC3C2CC[C@@]\4(C)C3C\C=C4[N]5C=NC6=C5C=CC=C6 (some centres undefined),461,454,461,428,455,466,469,465,470
O=C(NCC[S+](=O)([O-])c1ccc(C(F)(F)F)cn1)c1ccc(Cl)cc1,457,461,463,448,450,446,470,455,452
OC1=C(O)C2=C(\C=C/C(=O)O2)C=C1,454,469,465,423,430,436,470,466,467
CC(=O)Nc1ccc(OC[C@](C)(O)C(=O)Nc2ccc([N+](=O)[O-])c(C(F)(F)F)c2)cc1,375,388,404,346,399,411,416,384,383
CCCCCCCCCCCCCCCCCCCCCCO,458,444,456,444,460,447,445,461,447
Oc1ccc2c3c1O[C@H]1c4[nH]c5c(c4C[C@@]4(O)[C@@H](C2)N(CC2CC2)CC[C@]314)C[C@@]1(O)[C@H]2Cc3ccc(O)c4c3[C@@]1(CCN2CC1CC1)[C@H]5O4,448,443,472,422,429,454,463,440,428
ClC1=C(N\C2=N\CCN2)C3=NSN=C3C=C1,434,440,428,419,427,432,461,465,455
Nc1ccccc1NC(=O)c1ccc(CNC(=O)OCc2cccnc2)cc1,326,351,334,313,308,310,350,354,347
[NH2][Pt]1([NH2])[O]CC(=O)[O]1,462,429,432,455,464,407,467,463,439
NC1(Cc2ccc(Cl)cc2)CCN(c2ncnc3[nH]ccc23)CC1,418,395,381,377,357,352,425,384,393
CCc1cc(Nc2nccc(-c3c(-c4ccc(OC)c(C(=O)Nc5c(F)cccc5F)c4)nc4ccccn34)n2)c(OC)cc1N1CCC(N2CCN([S+](C)(=O)[O-])CC2)CC1,459,464,457,423,435,386,453,451,453
CC/1=C/C(=O)N(O)/C(=C1)C2CCCCC2,441,445,446,430,419,427,435,415,430
CC(NC1=CC=CC=C1)C\2=C\C(=C/N3C(=O)\C=C(/N=C23)N4CCOCC4)C (centres undefined),466,451,462,475,451,447,470,456,466
CCC(C)SSc1ncc[nH]1 (centres undefined),416,426,432,377,361,323,441,418,393
C\C1=C\C(=O)OC2=C1C=CC(=C2)O,456,470,439,452,455,434,436,457,452
Cc1c(CN2CCN(C(=O)[C@H](C)O)CC2)sc2c(N3CCOCC3)nc(-c3cnc(N)nc3)nc12,318,352,308,285,304,284,401,338,345
CC/C(=C(/c1ccc(O)cc1)c1ccc(OCCNC)cc1)c1ccccc1,443,459,452,410,412,405,432,414,405
COC1CCC(CC1)N(C(=O)C2CCC(C)CC2)C3=C(SC(=C3)\C4=C\CCCC4)C(O)=O (centres undefined),442,446,454,455,449,441,438,451,450
CC(C)NCC(O)COc1ccc(COCCOC(C)C)cc1 (centres undefined),458,461,459,468,474,469,457,463,463
COC1=NC(=NC(=C1N\C2=N\CCN2)Cl)C,446,429,418,420,380,426,413,450,424

SMILES,AUC of viability dose-response curve (NOMO1; HPLM + 10% dialyzed FBS),AUC of viability dose-response curve (NOMO1; RPMI 5 mM glucose + 10% FBS),AUC of viability dose-response curve (NOMO1; [1]),AUC of viability dose-response curve (SEM cells; HPLM + 10% dialyzed FBS),AUC of viability dose-response curve (SEM cells; RPMI 5 mM glucose + 10% FBS),AUC of viability dose-response curve (SEM cells; [1]),AUC of viability dose-response curve (P12-Ichikawa; HPLM + 10% dialyzed FBS),AUC of viability dose-response curve (P12-Ichikawa; RPMI 5 mM glucose + 10% FBS),AUC of viability dose-response curve (P12-Ichikawa; [1])
Cc1c(CCOc2ccc(C(=O)O)cc2)c2cc(Cl)ccc2n1C(c1ccccc1)c1ccccc1,457,442,443,470,450,451,442,468,459
COc1ccc(CC2NCCc3cc(OC)c(OC)cc32)cc1OC (centres undefined),451,427,407,397,390,403,459,416,420
CCN(CC)CC#CCOC(=O)C(O)(c1ccccc1)C1CCCCC1 (centres undefined),468,473,465,458,476,471,460,475,472
C/C=C(/C)C(=O)O[C@H]1C(C)=C2[C@H]([C@@H]1OC(=O)CCCCCCC)[C@@](C)(OC(C)=O)C[C@H](OC(=O)CCC)[C@@]1(O)[C@H]2OC(=O)[C@@]1(C)O,206,224,211,211,183,174,364,297,257
C[C@](O)(COc1ccc(C#N)cc1)C(=O)Nc1ccc(C#N)c(C(F)(F)F)c1,422,435,433,388,396,400,445,413,382
CC1=CC=CC=C1N2\C(=N/C3=C(C(=CC=C3)C)C2=O)C[N]4C=NC5=C4N=CN=C5N,369,427,406,344,308,344,439,412,419
C[C@H]1[C@H](NC(=O)/C(=N/OC(C)(C)C(=O)O)c2csc(N)n2)C(=O)N1[S+](=O)([O-])O,455,475,445,468,471,450,470,471,467
C/C=C1\NC(=O)[C@H]2CSSCC/C=C\[C@H](CC(=O)N[C@H](C(C)C)C(=O)N2)OC(=O)[C@H](C(C)C)NC1=O,182,181,189,166,170,162,175,174,176
CC[C@H](CC[C@@H](C)[C@H]1CC[C@H]2[C@@H]3C\C=C/4C[C@@H](O)CC[C@]4(C)[C@H]3CC[C@]12C)C(C)C,420,449,431,452,469,467,448,453,446
Cn1c(=O)c2c(ncn2C)n(C)c1=O.O=C(O)CC(O)(CC(=O)O)C(=O)O,439,465,455,472,456,475,459,462,472
COc1ccc(-c2cc3nccn3c(Nc3ncccc3C(N)=O)n2)cc1OC,444,476,473,380,405,352,471,475,471
COc1cc2c(cc1OC)C1CC(=O)C(CC(C)C)CN1CC2 (centres undefined),448,470,469,471,476,459,459,459,466
COc1c(C)cnc(Cn2cnc3c(Cl)nc(N)nc32)c1C,322,324,323,306,293,306,376,334,340
c1cncc(CN2CCC(n3ncc4c(N5CCOCC5)nc(-c5ccc6[nH]ccc6c5)nc43)CC2)c1,374,372,362,376,370,352,426,351,357
C=CC(=O)Nc1cccc(Oc2nc(Nc3ccc(N4CCN(C)CC4)cc3)ncc2Cl)c1,465,454,459,369,303,351,420,392,421
CC1=C(/C=C/C(C)=C/C=C/C(C)=C/C=C/C=C(C)/C=C/C=C(C)/C=C/C2=C(C)CCCC2(C)C)C(C)(C)CCC1,450,444,459,477,458,474,469,465,440
CN(c1ncccc1CNc1nc(Nc2ccc3c(c2)CC(=O)N3)ncc1C(F)(F)F)[S+](C)(=O)[O-],451,448,446,362,342,321,462,447,459
CCCCCOC(=O)NC\1=N\C(=O)N(\C=C1F)[C@@H]2O[C@H](C)[C@@H](O)[C@H]2O,413,434,458,468,466,469,460,443,442
CC1(C)O[C@@H]2C[C@H]3[C@@H]4CCC5=CC(=O)C=C[C@]5(C)[C@@]4(F)[C@@H](O)C[C@]3(C)[C@]2(C(=O)CO)O1,411,418,456,255,270,280,315,288,288
Cc1cn2c(-c3cn[nH]c3)cnc2c(Nc2ccc(C(=O)N3CCNCC3)cc2F)n1,430,417,409,419,424,421,444,440,439
CN(C)CCOc1cc(-c2cn[nH]c2)ccc1NC(=O)C1COc2ccccc2O1 (centres undefined),460,442,447,439,453,453,449,455,459
OC1=CC=C(C=C1)\C2=C\OC3=C(C=CC(=C3)O)C2=O,473,459,470,472,467,467,446,446,457
NC(=O)c1cnc(N[C@@H]2CCCC[C@@H]2N)nc1Nc1cccc(-n2nccn2)c1,457,457,453,419,420,428,468,462,471
